Results published in ChEMBL document CHEMBL1144807, “Ciliatamides A-C, bioactive lipopeptides from the deep-sea sponge Aaptos ciliata” (J Nat Prod, 2008).
In brackets after ≈: the same amount, converted by molar mass. Activity calls are given as the source filed them. No cut-off for these calls is given here.

Key:
[1] = tested on: HeLa; assay: Cytotoxicity against human HeLa cells lines by MTT assay; type: cell-based
[2] = tested on: Leishmania major; assay: Antileishmanial activity against Leishmania major egfp promastigotes at 10 ug/ml; type: functional; details: for inhibition of growth at 10 µg/mL: read-out: GI

Row | Compound | IC50 [1] [µg/mL] | Activity [2] | inhibition of growth at 10 µg/mL [2] [%]
1 | C=CCCCCCCCC(=O)N(C)[C@@H](Cc1ccccc1)C(=O)N[C@H]1CCCNC1=O [CILIATAMIDES C] | 50 (≈ 117 µM) | inactive | 
2 | CCCCCCCC(=O)N(C)[C@@H](Cc1ccccc1)C(=O)N[C@H]1CCCCNC1=O [CILIATAMIDES B] | 4.5 (≈ 10.8 µM) |  | 45.5
3 | C=CCCCCCCCC(=O)N(C)[C@@H](Cc1ccccc1)C(=O)N[C@H]1CCCCNC1=O [CILIATAMIDES A] | 50 (≈ 113 µM) |  | 50
